Experimental data taken from article PMC9366811, “Antiviral activity of natural phenolic compounds in complex at an allosteric site of SARS-CoV-2 papain-like protease” (Communications Biology, 2022).
Read-outs that look alike come from different tables or passages of the source.

What was measured:
[1] = biological target: SARS-CoV-2 main protease (Mpro) (Severe acute respiratory syndrome coronavirus 2, UniProt P0DTC1); experiment: FRET-based Mpro inhibition assay; assay type: biochemical; conditions: substrate 2-AbzSAVLQSGTyr(3-NO2)R-OH, incubated with Mpro for 30 minutes
Method: Activity assays were performed for SARS-CoV-2 Mpro[16],[71] utilizing the three natural compounds, aiming to characterize the specificity of the compounds towards PLpro. The assays were performed applying a total reaction volume of 50 µL using non-binding, black bottom, 96-well plates and the relative fluorescence was measured utilizing a Tecan Infinite M plus plate reader (Tecan Group Ltd, Switzerland) using optical settings specific for the substrate 2-Abz[…]yr(3-NO2)R-OH (Biotrend). The corresponding fluorophore has an excitation and emission at 355 nm and 460 nm wavelength respectively. The substrate and Mpro were used at a final concentration of 5 µM and 75 nM respectively. The known Mpro inhibitor (GC-376) was used as positive control throughout the assay. SARS-CoV-2 Mpro and substrates were diluted in assay buffer (20 mM Tris-HCl pH 7.3, 150 mM NaCl, 1 mM EDTA, 1 mM DTT) and reactions were initiated upon addition of Mpro in a final volume of 50 µL and were measured at 25 °C. The three compounds were incubated prior to the experiments with Mpro at 10 °C for 6 h, as accomplished also for the PLpro activity assays. Fluorescence values were measured for 15 min with one read out per minute. […]
311 with Mpro for 6h at 10 °C and fluorescence was measured for 15 min with read - […]
318 were incubated with the Mpro for 30 minutes. The IC50 values were calculated by […]

SARS-CoV-2 PLpro [2] = biological target: T1, SARS-CoV-2 PLpro (Severe acute respiratory syndrome coronavirus 2, UniProt P0DTC1); assay type: biochemical; conditions: compound at 50 µM, compared with ISG15-Rhodamine substrate
PLpro = PLpro (Severe acute respiratory syndrome coronavirus 2, UniProt P0DTC1); experiment: nanoDSF fluorescence titration (quenching of PLpro fluorescence); assay type: binding, SARS-CoV-2
SARS-CoV-2 [3] = experiment: microbe, parasite or virus in culture; assay type: cell-based; conditions: Vero cells, MOI 0.01, 42 h, CellTiter-Glo; for IC50: read-out: IC50 CPE inhibition
SARS-CoV-2 PLpro [4] = biological target: T1, SARS-CoV-2 PLpro; experiment: biochemical; conditions: for inhibition at 50 µM: compound at 50 µM, 10 nM PLpro, ISG15-Rhodamine 100 nM, preincubation 6 h at 10 °C, read-out: % Inhibition of PLpro deISGylation activity
[5] = system: Vero cell lines (ATCC CCL-81)
SARS-CoV-2 [6] = experiment: Antiviral activity assay in Vero cells, viral RNA by qRT-PCR; assay type: cell-based; conditions: Severe acute respiratory syndrome coronavirus 2, MOI 0.01, qRT-PCR, 42 h post-infection, read-out: IC50 Antiviral cell assay (reduction of viral RNA replication)

Row | SMILES | IC50 [1] [µM] | inhibition of PLpro with Ub-Rhodamine as substrate (SARS-CoV-2 PLpro [2]) | Kd (PLpro) [µM] | IC50 CPE inhibition (SARS-CoV-2 [3]) | IC50 (SARS-CoV-2 PLpro [4]) [µM] | inhibition at 50 µM (SARS-CoV-2 PLpro [4]) [%] | Kd (PLpro; nanoDSF fluorescence titration, 50 μM PLpro, 0.5% DMSO, depending on the emission wavelength used (330/350 nm), read-out: Kd) [µM] | IC50 (SARS-CoV-2 [3]; Severe acute respiratory syndrome coronavirus 2, Vero, 42 h) [µM] | IC50 (SARS-CoV-2 [3]) [µM] | cell toxicity at 100 µM [5] | IC50 (SARS-CoV-2 [6]) [µM]
1 | CC(C)C[C@H](NC(=O)OCc1ccccc1)C(=O)N[C@@H](CC1CCNC1=O)C(O)S(=O)(=O)O (some centres unmarked) [GC-376] | 1.1 |  |  |  |  |  |  |  |  |  | 
2 | O=Cc1ccc(O)cc1 [HBA, 4-hydroxybenzaldehyde] |  | not as pronounced | ~400 | unable to fit a sigmoidal curve | 3.99 ± 1.33 | ~73 |  |  |  |  | 
3 | COC(=O)c1ccc(O)c(O)c1 [HE9, methyl 3,4-dihydroxybenzoate] |  |  |  |  |  |  | 1000 | 10.4 | 10 | no associated cell toxicity | 0.13
4 | OCCc1ccc(O)cc1 [YRL, 4-(2-hydroxyethyl)phenol] |  | not as pronounced |  | unable to fit a sigmoidal curve | 6.68 ± 1.2 | ~70 |  |  |  | no associated cell toxicity | 1
